# Experimental data published in PubChem BioAssay (NCI).
# Where “and” joins values, the source holds several entries; their conditions need not be identical. Equal entries are not always repeated.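 Where inhibition never reached the appropriate level, the endpoint shown equals the highest concentration tested. Otherwise, values were interpolated linearly from a five-concentration, 48-hour dose response in 96-well plates. At the GI50, growth is halved. Definition used: TGI = concentration required for complete inhibition of growth.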
# Legend:
# Test in all cases: DTP human tumour cell line panel, 48 h
# HCT-116 colon = tested on: HCT-116 colon
# SK-MEL-2 melanoma = tested on: SK-MEL-2 melanoma
# M14 melanoma = tested on: M14 melanoma
# SW-620 colon = tested on: SW-620 colon
# MALME-3M melanoma = tested on: MALME-3M melanoma
# SF-539 CNS = tested on: SF-539 CNS
# COLO 205 colon = tested on: COLO 205 colon
# UACC-257 melanoma = tested on: UACC-257 melanoma
# EKVX NSCLC = tested on: EKVX NSCLC
# OVCAR-4 ovarian = tested on: OVCAR-4 ovarian
SMILES,TGI (HCT-116 colon),TGI (SK-MEL-2 melanoma) [µM],GI50 (M14 melanoma) [µM],TGI (M14 melanoma),GI50 (SW-620 colon) [µM],TGI (SW-620 colon),GI50 (MALME-3M melanoma) [µM],TGI (MALME-3M melanoma),GI50 (SF-539 CNS) [µM],TGI (SF-539 CNS),GI50 (COLO 205 colon),TGI (COLO 205 colon) [µM],TGI (UACC-257 melanoma),GI50 (EKVX NSCLC),TGI (EKVX NSCLC) [µM],GI50 (OVCAR-4 ovarian) [µM],TGI (OVCAR-4 ovarian) [µM],GI50 (HCT-116 colon) [µM],GI50 (SK-MEL-2 melanoma) [µM],GI50 (UACC-257 melanoma) [µM]
CC(C)(C)c1cc(C=C(C#N)C#N)cc(C(C)(C)C)c1O,1.03 µM and 3.81 µM,1.39,0.533,12.1 µM and 10.7 µM,0.462,30.9 µM and 45.4 µM,0.507,15.4 µM and 8.08 µM,0.376,10.2 µM and 3.24 µM,0.363 µM and 0.191 µM,0.369,0.898 µM and 3.27 µM,0.518 µM and 0.825 µM,46.3,0.523,> 354,–,–,–
Cc1cc(N(CCC#N)CCC#N)ccc1/C=C(\NC(=O)/C=C/c1ccccc1)C(=O)NN,> 100 µM,> 100,–,> 100 µM,–,> 100 µM,–,> 100 µM,–,> 100 µM,–,> 100,> 100 µM,–,> 100,–,> 100,–,–,–
CNC(=O)c1nn(C)c2c1C(C)(C)Cc1cnc(Nc3ccc(N4CCN(C)CC4)cc3)nc1-2,> 9.48 µM,> 8.25,0.248,> 8.53 µM,0.608,> 10 µM,0.431,> 9.24 µM,1.39,> 6.03 µM,0.313 µM,3.12,> 9.15 µM,1.93 µM,> 10,0.683,> 8.34,0.346,0.432,0.863
N#CNC(N)=Nc1ccc(Cl)cc1,> 100 µM,> 100,–,> 100 µM,–,> 100 µM,–,> 100 µM,–,> 100 µM,–,> 100,> 100 µM,–,> 100,–,> 100,–,–,–
O=[N+]([O-])c1ccc(-c2ccc(-c3csc(Nc4ccccc4)n3)o2)cc1,47 µM,36.4,–,38 µM,–,56.7 µM,–,32.1 µM,–,33.9 µM,–,58.2,33.3 µM,–,33.5,–,32,–,–,–
CCNC(=O)c1noc(-c2cc(C(C)C)c(O)cc2O)c1-c1ccc(CN2CCOCC2)cc1,15.5 µM,8.74,0.0384,18.6 µM,< 0.01,23.9 µM,0.025,12.1 µM,0.0662,26.3 µM,0.0787 µM,5.64,0.159 µM,5.21 µM,> 100,10.9,> 100,0.0313,0.0311,0.0259
CCOC(=O)/C(C#N)=C\C=C(/Cl)c1ccc(Cl)cc1,24.3 µM,> 91.6,14.8,31.4 µM,5.94,26.3 µM,18.6,40.5 µM,11.3,33.9 µM,19.1 µM,> 48,32.6 µM,26.5 µM,63.9,27.8,> 76.4,11.2,27.7,17.6
CSC(=S)N/N=C/c1nccc2ccccc12,> 100 µM,5.89,–,4.87 µM,–,18.8 µM,–,32.7 µM,–,4.83 µM,–,1.58,15.5 µM,–,12.8,–,> 100,–,–,–
Cc1c(C(=O)O)oc2ccc([N+](=O)[O-])cc12,> 100 µM,> 100,–,> 100 µM,–,> 100 µM,–,> 100 µM,–,> 100 µM,–,> 100,> 100 µM,–,> 100,–,> 100,–,–,–
O=C(/C=C/c1ccccc1)c1ccc(NCc2nc3ccccc3[nH]2)cc1,13 µM,25.5,–,21.4 µM,–,8.43 µM,–,26.9 µM,–,5.02 µM,–,11.1,13.2 µM,–,22.5,–,22.8,–,–,–
CC(C)(C)OC(=O)NCCCCCCCn1c2c(c3ccccc3c1=O)C(=O)c1ccccc1-2,66.6 µM,> 100,44.4,> 100 µM,44,> 100 µM,37.2,> 100 µM,20.7,38.8 µM,63.7 µM,> 100,> 100 µM,> 100 µM,> 100,30.5,> 100,17.6,36.6,41.4
COc1ccc(OC)c(Cn2cc3c(c2-c2ccccc2)CCc2cnoc2-3)c1,> 100 µM,59.2,4.82,> 100 µM,3.69,> 100 µM,3.7,> 100 µM,4.24,56.9 µM,6.31 µM,> 100,> 100 µM,6.9 µM,> 100,11.3,> 100,4.04,3.71,30.7
